What was measured:
[1] = Measurement of body temperature increase (rectal body temperature); assay type: in vivo, rat; conditions: Crl/SD rats, oral; for Body temperature increase: 1 mg/mL at 10 mL/kg; for Body temperature increase ΔTb: 1 mg/mL in 0.5% methylcellulose at 10 mL/kg, difference from vehicle group average
Method: Test Animals: Selection of rats (Crl/SD rats, 7 weeks, male) for this study was based on rectal body temperature measured during the morning of the day of dosing. In addition, animals selected for this study were acclimated to both the rectal measurement procedure and to being handled and dosed to minimize spontaneous, stress-induced, increases in body temperature. The study was conducted in the animal care laboratories where the room temperature and humidity were kept. The rats were free to move and food and water during the study. Each rat was numbered with color line on the tail, housed in each cage and permitted the normal range of movement. Immediately before each body temperature was measured, they transferred to a single cage at each measurement. To reduce stress which affected the body temperature, the rats were covered with towels at the measurement. The thermistor probe was then carefully inserted into the rectum of each rat and left in place until the value on the digital display had stabilized.
Assays: On the day before dosing, rectal body temperatures were measured at 9:00, 10:00, 11:00, 12:30, 13:30, 14:30 and 15:30 to familiarize the animals with the measurement procedure prior to administration of the test or control treatments. The rats were also dosed by oral gavage without vehicle at 12:30 to acclimate and familiarized the animals with the handling and dosing procedure.
On the day of dosing, only rats whose rectal body temperatures were within the range of 37.0° C. to 37.7° C. were selected for this study. Rectal body temperatures were measured at 9:00, 10:00 and 11:00. Rats whose rectal body temperatures were over 37.9° C. at 10:00, and were outside the range of 37.0° C. to 37.7° C. at 11:00 were excluded from the study. The selected rats were divided to several groups based on their rectal body temperatures at 11:00. Rectal body temperatures of the selected rats were measured again at 12:30, and any rats whose rectal body temperature was 38.0° C. or greater were excluded from the study.
Following the group assignment, test compounds or vehicle was administrated to the rats. Each test compound was dissolved in 0.5% methylcellurose and the final concentration of the compound was adjusted to 1 mg/mL. Test compound was orally administrated in a volume 10 mL/kg once. 10 mL/kg of vehicle (0.5% methylcellurose) was administered to the vehicle group. The rectal body temperatures were measured 0.5, 1 and 2 hrs after the administration. The study was conducted in the animal care laboratories where the room temperature and humidity were kept.
Body temperature increase (ΔTb) was calculated from the difference from an average of the vehicle group at each time point.

human recombinant TRPV1 [2] = biological target: T1, human recombinant TRPV1 (Homo sapiens (Human), UniProt Q8NER1); assay: TRPV1 pH-Based Assay (Protocol 2, Ca2+ response in TRPV1/CHO cells, Fura-2); assay type: cell-based; conditions: TRPV1/CHO cells, pH 5.0-5.1; read-out: IC50 value by the pH-Based Assay
Method in brief: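 CHO cells stably expressing human TRPV1, Fura-2 loaded, given compound (1% DMSO in 10× stock) before acid challenge to final pH 5.0-5.1 (3.2 or 3.3 mM H2SO4). 340/380 nm ratio recorded at 0.5 Hz; maximal ratio after agonist addition versus 16-point baseline used as response.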

human recombinant TRPV1 [3] = biological target: T1, human recombinant TRPV1; assay: TRPV1 Capsaicin-Based Assay (Protocol 2, TRPV1/CHO cells, Fluo-4, FLIPR); assay type: cell-based; conditions: TRPV1/CHO cells, capsaicin 100 nM final; read-out: IC50 value by the Capsaicin-Based Assay
Method: For Protocol 2, a Chinese Hamster Ovary cell line (CHO) that has been engineered to constitutively express human recombinant TRPV1 was used (TRPV1/CHO cells). The TRPV1/CHO cell line was generated as described below.
One day prior to assay, TRPV1/CHO cells were seeded in 96-well clear-bottom black plates (20,000 cells/well) in growth media. On the day of the experiment, the cells were washed with 0.2 mL 1× Hank's Balanced Salt Solution (Life Technologies) containing 1.6 mM CaCl2 and 20 mM HEPES, pH 7.4 (“wash buffer”). Subsequently, the cells were loaded by incubation in 0.1 mL of wash buffer containing Fluo-4 at 3 μM final concentration. After 1 hour, the cells were washed twice with 0.2 mL wash buffer and resuspended in 0.1 mL wash buffer. The plates were then transferred to a Fluorescence Imaging Plate Reader (Molecular Devices). Fluorescence intensity was monitored for 15 seconds to establish a baseline. Subsequently, test compounds diluted in assay buffer (1× Hank's Balanced Salt Solution containing 1 mM CaCl2 and 20 mM HEPES, pH 7.4) containing 1% DMSO were added to the cell plate and fluorescence was monitored for 2 minutes. […] Human TRPV1 was then activated by the addition of 50 μL capsaicin (100 nM final concentration) and plates incubated for an additional 3 min. Data were collected over the entire time course and analyzed using Excel and the curve-fitting formula GraphPad Prism.

T1 sequence (Q8NER1 whole entry): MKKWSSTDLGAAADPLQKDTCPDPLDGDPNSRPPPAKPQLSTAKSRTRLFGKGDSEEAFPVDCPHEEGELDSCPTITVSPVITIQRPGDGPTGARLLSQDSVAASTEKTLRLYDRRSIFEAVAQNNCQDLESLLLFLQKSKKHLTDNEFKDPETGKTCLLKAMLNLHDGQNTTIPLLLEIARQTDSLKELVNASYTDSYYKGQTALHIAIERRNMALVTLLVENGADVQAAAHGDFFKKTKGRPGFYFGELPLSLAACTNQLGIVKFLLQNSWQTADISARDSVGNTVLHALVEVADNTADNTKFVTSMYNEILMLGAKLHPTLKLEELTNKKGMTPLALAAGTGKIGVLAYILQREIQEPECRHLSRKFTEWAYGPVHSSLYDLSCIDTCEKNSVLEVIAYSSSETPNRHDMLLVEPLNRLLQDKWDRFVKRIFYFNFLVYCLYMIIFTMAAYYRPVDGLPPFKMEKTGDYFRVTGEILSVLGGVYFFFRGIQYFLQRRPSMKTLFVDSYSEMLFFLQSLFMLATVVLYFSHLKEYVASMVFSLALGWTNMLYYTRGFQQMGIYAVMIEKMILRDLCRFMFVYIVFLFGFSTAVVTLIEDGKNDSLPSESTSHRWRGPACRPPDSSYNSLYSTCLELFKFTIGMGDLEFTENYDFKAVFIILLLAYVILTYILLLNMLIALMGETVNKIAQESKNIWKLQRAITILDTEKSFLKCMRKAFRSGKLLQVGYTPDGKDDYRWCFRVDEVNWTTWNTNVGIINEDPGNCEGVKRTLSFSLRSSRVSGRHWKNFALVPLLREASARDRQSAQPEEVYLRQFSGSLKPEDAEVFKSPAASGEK

Row | Body temperature increase [1] | IC50 (human recombinant TRPV1 [2]) [nM] | IC50 (human recombinant TRPV1 [3]) [nM] | Body temperature increase ΔTb [1] [°C] | Structure (SMILES)
1 | less than 0.5 °C | ≤ 50 |  |  | Cc1cc(NC(=O)N2CC=C(c3ncc(C[C@@H](O)CO)cc3Cl)CC2)ccc1C(F)(F)F [AAW, (R)-4-(3-Chloro-5-(2,3-dihydroxypropyl)pyridin-2-yl)-N-(3-methyl-4-(trifluoromethyl)phenyl)-5,6-dihydropyridine-1(2H)-carboxamide]
2 | less than 0.5 °C | ≤ 50 | ≤ 50 |  | Cc1ccc2nc(NC(=O)N3CCN(c4ncc(C[C@@H](O)CO)cc4Cl)CC3)sc2c1 [ADU]
3 |  | ≤ 50 | ≤ 50 | 0.16 | Cc1cc(NC(=O)N2CCC(F)(c3ncc(C[C@@H](O)CO)cc3F)CC2)ccc1OC(F)(F)F [ACP, (R)-4-(5-(2,3-dihydroxypropyl)-3-fluoropyridin-2-yl)-4-fluoro-N-(3-methyl-4-(trifluoromethoxy)phenyl)piperidine-1-carboxamide]
4 | less than 0.5 °C |  | ≤ 50 |  | C[C@H]1CN(c2ncc(C[C@H](O)CO)cc2Cl)CCN1C(=O)Nc1nc2ccc(Cl)cc2s1 [AEG]
5 | less than 0.5 °C | ≤ 50 |  |  | O=C(Nc1nc2ccc(F)cc2s1)N1CCN(c2ncc(C[C@H](O)CO)cc2F)CC1 [ADD, (S)-4-(5-(2,3-dihydroxypropyl)-3-fluoropyridin-2-yl)-N-(6-fluorobenzo[d]-thiazol-2-yl)piperazine-1-carboxamide]
6 | less than 0.5 °C |  |  |  | Cc1cc(NC(=O)N2CC=C(c3ncc(C[C@@H](O)CO)cc3F)CC2)ccc1OC(F)(F)F [ACB, (R)-5-(2,3-dihydroxypropyl)-3-fluoro-N-(3-methyl-4-(trifluoromethoxy)phenyl)-5′,6-dihydro-[2,4′-bipyridine]-1′(2′H)-carboxamide]
7 | less than 0.5 °C | ≤ 50 |  |  | O=C(Nc1ccc(C(F)(F)F)c(Cl)c1)N1CC=C(c2ncc(C[C@H](O)CO)cc2Cl)CC1 [AAF, (S)-N-(3-Chloro-4-(trifluoromethyl)phenyl)-4-(3-chloro-5-(2,3-dihydroxypropyl)pyridin-2-yl)-5,6-dihydropyridine-1(2H)-carboxamide]
8 | less than 0.5 °C | ≤ 50 | ≤ 50 |  | O=C(Nc1nc2ccc(Cl)cc2s1)N1CCN(c2ncc(C[C@@H](O)CO)cc2Cl)CC1 [ADT]
9 | less than 0.5 °C |  |  |  | Cc1cc(NC(=O)N2CC=C(c3ncc(C[C@H](O)CO)cc3C)CC2)ccc1OC(F)(F)F [ACK, (S)-4-(5-(2,3-dihydroxypropyl)-3-methylpyridin-2-yl)-N-(3-methyl-4-(trifluoromethoxy)phenyl)-5,6-dihydropyridine-1(2H)-carboxamide]
10 | less than 0.5 °C | ≤ 50 | ≤ 50 |  | Cc1cc(NC(=O)N2CC=C(c3ncc(C[C@H](O)CO)cc3F)CC2)ccc1C(F)(F)F [ABY, (S)-5-(2,3-dihydroxypropyl)-3-fluoro-N-(3-methyl-4-(trifluoromethyl)phenyl)-5′,6′-dihydro-[2,4′-bipyridine]-1′(2′H)-carboxamide]
11 | less than 0.5 °C | ≤ 50 | ≤ 50 |  | O=C(Nc1nc2ccc(F)cc2s1)N1CCN(c2ncc(C[C@@H](O)CO)cc2F)CC1 [ACW, (R)-4-(5-(2,3-dihydroxypropyl)-3-fluoropyridin-2-yl)-N-(6-fluorobenzo[d]-thiazol-2-yl)piperazine-1-carboxamide]
12 | less than 0.5 °C | ≤ 50 |  |  | Cc1cc(NC(=O)N2CC=C(c3ncc(C[C@@H](O)CO)cc3F)CC2)ccc1C(F)(F)F [ACA, (R)-5-(2,3-dihydroxypropyl)-3-fluoro-N-(3-methyl-4-(trifluoro-methyl)phenyl)-5′,6′-dihydro-[2,4′-bipyridine]-1′(2′H)-carboxamide]
13 | less than 0.5 °C |  |  |  | O=C(Nc1nc2ccc(F)cc2s1)N1CCC(F)(c2ncc(C[C@@H](O)CO)cc2Cl)CC1 [AEF, (R)-4-(3-chloro-5-(2,3-dihydroxypropyl)pyridin-2-yl)-4-fluoro-N-(6-fluorobenzo[d]thiazol-2-yl)piperidine-1-carboxamide]
14 | less than 0.5 °C | ≤ 50 |  |  | O=C(Nc1ccc(C(F)(F)F)c(Cl)c1)N1CC=C(c2ncc(C[C@@H](O)CO)cc2Cl)CC1 [AAK, (R)-N-(3-Chloro-4-(trifluoromethyl)phenyl)-4-(3-chloro-5-(2,3-dihydroxypropyl)pyridin-2-yl)-5,6-dihydropyridine-1(2H)-carboxamide]
15 | less than 0.5 °C | ≤ 50 |  |  | COc1cc(NC(=O)N2CC=C(c3ncc(C[C@@H](O)CO)cc3Cl)CC2)ccc1C(F)(F)F [AAM, (R)-4-(3-Chloro-5-(2,3-dihydroxypropyl)pyridin-2-yl)-N-(3-methoxy-4-(trifluoromethyl)phenyl)-5,6-dihydropyridine-1(2H)-carboxamide]
16 |  | ≤ 50 |  | 0.03 | Cc1cc(NC(=O)N2CC=C(c3ncc(C[C@H](O)CO)cc3F)CC2)ccc1OC(F)(F)F [ABZ, (S)-5-(2,3-dihydroxypropyl)-3-fluoro-N-(3-methyl-4-(trifluoromethoxy)-phenyl)-5′,6′-dihydro-[2,4′-bipyridine]-1′(2′H)-carboxamide]
17 | less than 0.5 °C | ≤ 50 |  |  | C[C@@H]1CN(c2ncc(C[C@@H](O)CO)cc2F)CCN1C(=O)Nc1nc2ccc(Cl)cc2s1 [ADK, (R)-N-(6-chlorobenzo[d]thiazol-2-yl)-4-{5-[(R)-2,3-dihydroxypropyl]-3-fluoropyridin-2-yl}-2-methylpiperazine-1-carboxamide]
18 | less than 0.5 °C | ≤ 50 |  |  | O=C(Nc1nc2ccccc2s1)N1CCN(c2ncc(C[C@@H](O)CO)cc2Cl)CC1 [ADV]
19 |  | ≤ 50 |  | 0.24 | Cc1cc2nc(NC(=O)N3CCN(c4ncc(C[C@@H](O)CO)cc4F)CC3)sc2cc1C [ACZ, (R)-4-(5-(2,3-dihydroxypropyl)-3-fluoropyridin-2-yl)-N-(5,6-dimethylbenzo[d]thiazol-2-yl)piperazine-1-carboxamide]
20 | less than 0.5 °C |  |  |  | Cc1cc(NC(=O)N2CC=C(c3ncc(C[C@@H](O)CO)cc3C)CC2)ccc1C(F)(F)F [ACD, (R)-4-(5-(2,3-dihydroxypropyl)-3-methylpyridin-2-yl)-N-(3-methyl-4-(trifluoromethyl)phenyl)-5,6-dihydropyridine-1(2H)-carboxamide]
21 | less than 0.5 °C |  |  |  | Cc1cc(NC(=O)N2CC=C(c3ncc(C[C@H](O)CO)cc3C)CC2)ccc1C(F)(F)F [ACL, (S)-4-(5-(2,3-dihydroxypropyl)-3-methylpyridin-2-yl)-N-(3-methyl-4-(trifluoromethyl)phenyl)-5,6-dihydropyridine-1(2H)-carboxamide]
22 | less than 0.5 °C |  | ≤ 50 |  | Cc1ccc2nc(NC(=O)N3CCN(c4ncc(C[C@H](O)CO)cc4Cl)CC3)sc2c1 [ADX]

From patent US8921373B2, “Compounds having TRPV1 antagonistic activity and uses thereof” (Shionogi & Co., Ltd., priority 2010, dated 2014)
